Data reported in patent publication US8415469B2, “Compounds and methods for kinase modulation, and indications therefor” (Plexxikon Inc., priority 2005, dated 2013).

Columns and labels:
Assay type in all cases: biochemical
[1] = target: T1, Jnk1 (Homo sapiens, UniProt P45983); experiment: AlphaScreen kinase assay, Jnk1; conditions: read-out: IC50, activity toward kinase Jnk1
T1 construct: purchased Upstate Biotechnology

[2] = target: T2, Flt1 (Homo sapiens, UniProt P17948); experiment: AlphaScreen kinase assay, Flt1; conditions: read-out: IC50, activity toward kinase Flt1
T2 construct: P1826.pETN6 BI-PTP FLT1 M799-D1165-X WT; His6 (N); made in house; host or cells: E. coli (PTP1B co-expressed)
T2 sequence (P17948 with tags, fused parts or gaps): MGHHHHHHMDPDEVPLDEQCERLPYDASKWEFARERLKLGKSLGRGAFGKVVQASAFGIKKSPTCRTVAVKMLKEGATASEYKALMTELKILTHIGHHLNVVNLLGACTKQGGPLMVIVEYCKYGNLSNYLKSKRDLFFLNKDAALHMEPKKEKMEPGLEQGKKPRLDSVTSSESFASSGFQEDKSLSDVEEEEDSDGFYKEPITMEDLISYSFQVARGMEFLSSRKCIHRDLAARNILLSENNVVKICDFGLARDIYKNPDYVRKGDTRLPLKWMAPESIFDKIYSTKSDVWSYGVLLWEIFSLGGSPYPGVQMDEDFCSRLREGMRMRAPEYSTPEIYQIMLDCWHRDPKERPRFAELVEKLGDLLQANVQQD
Protocol: AlphaScreen assays were done using compounds dissolved in DMSO to a concentration of 20 mM. The compounds were diluted accordingly to the desired final concentrations in each sample well, using 1:3 serial dilution for a total of 8 concentration points. Plates were prepared such that each kinase reaction is 20 μl in 1× kinase buffer, 5% DMSO and 10 μM ATP. After incubation of the kinase reaction for 1 hour at room temperature, 5 μl of donor beads in stop buffer (50 mM EDTA in 1× kinase buffer) was added, the sample was mixed and incubated for 20 minutes at room temperature before adding 5 μl of acceptor beads in stop buffer. The samples were incubated for 60 minutes at room temperature and the signal per well was read on AlphaQuest reader.

[3] = target: T3, c-Raf-1 (Homo sapiens, UniProt P04049); experiment: AlphaScreen kinase assay, c-Raf-1; conditions: read-out: IC50, activity toward kinase c-Raf-1
T3 construct: purchased Upstate Biotechnology
T3 sequence (P04049 whole entry): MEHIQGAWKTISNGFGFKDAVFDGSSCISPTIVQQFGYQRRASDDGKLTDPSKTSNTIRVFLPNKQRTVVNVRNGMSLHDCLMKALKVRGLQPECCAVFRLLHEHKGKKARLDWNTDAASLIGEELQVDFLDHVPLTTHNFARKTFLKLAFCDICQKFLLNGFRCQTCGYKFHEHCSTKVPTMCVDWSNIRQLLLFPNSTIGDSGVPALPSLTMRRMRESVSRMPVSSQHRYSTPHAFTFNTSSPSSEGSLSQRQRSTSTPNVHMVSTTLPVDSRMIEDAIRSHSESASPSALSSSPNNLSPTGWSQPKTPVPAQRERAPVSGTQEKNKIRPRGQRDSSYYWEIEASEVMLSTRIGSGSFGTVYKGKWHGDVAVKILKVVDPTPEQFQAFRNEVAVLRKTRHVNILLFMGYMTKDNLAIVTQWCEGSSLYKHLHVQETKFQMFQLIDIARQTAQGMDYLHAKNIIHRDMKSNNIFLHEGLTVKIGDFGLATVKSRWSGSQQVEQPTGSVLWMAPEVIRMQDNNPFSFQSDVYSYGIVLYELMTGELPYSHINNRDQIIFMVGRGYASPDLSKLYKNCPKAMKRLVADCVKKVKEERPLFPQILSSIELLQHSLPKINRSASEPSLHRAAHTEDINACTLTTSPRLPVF

[4] = target: T4, Met (Homo sapiens, UniProt P08581); experiment: AlphaScreen kinase assay, Met; conditions: read-out: IC50, activity toward kinase Met
T4 construct: P1818.pETN6 BI-PTP MET G1056-G1364-X WT; His6 (N); made in house; host or cells: E. coli (PTP1B co-expressed)
T4 sequence (P08581 with tags, fused parts or gaps): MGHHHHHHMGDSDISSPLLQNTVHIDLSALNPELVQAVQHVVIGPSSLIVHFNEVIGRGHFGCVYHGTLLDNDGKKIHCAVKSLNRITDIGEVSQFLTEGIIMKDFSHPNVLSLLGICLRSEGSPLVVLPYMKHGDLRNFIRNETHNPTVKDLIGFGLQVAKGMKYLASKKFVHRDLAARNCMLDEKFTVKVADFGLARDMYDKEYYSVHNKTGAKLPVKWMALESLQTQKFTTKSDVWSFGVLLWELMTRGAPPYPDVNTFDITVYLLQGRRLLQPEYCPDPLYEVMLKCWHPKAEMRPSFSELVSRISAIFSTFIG
Text: AlphaScreen assay was used to screen additional kinases. The assay is similarly dependent on the phosphorylation of a peptide substrate. In this assay, an antibody that recognizes phosphorylated substrate is bound to an acceptor bead. The peptide substrate is attached to biotin, which binds to a donor head that contains streptavidin. Thus phosphorylated substrate is bound by antibody and streptavidin, bringing the donor and acceptor heads into close proximity when kinase is not inhibited. The donor produces singlet oxygen which results in emission from the acceptor when they are in close proximity. Conversely, when kinase is inhibited, the donor and acceptor beads are not associated and the emission from the acceptor is reduced.
AlphaScreen assays were done using compounds dissolved in DMSO to a concentration of 20 mM. The compounds were diluted accordingly to the desired final concentrations in each sample well, using 1:3 serial dilution for a total of 8 concentration points.

[5] = target: T5, B-Raf (Homo sapiens, UniProt P15056); experiment: AlphaScreen kinase assay, B-Raf; conditions: read-out: IC50, activity toward kinase B-Raf
T5 construct: purchased Upstate Biotechnology
T5 sequence (P15056 whole entry): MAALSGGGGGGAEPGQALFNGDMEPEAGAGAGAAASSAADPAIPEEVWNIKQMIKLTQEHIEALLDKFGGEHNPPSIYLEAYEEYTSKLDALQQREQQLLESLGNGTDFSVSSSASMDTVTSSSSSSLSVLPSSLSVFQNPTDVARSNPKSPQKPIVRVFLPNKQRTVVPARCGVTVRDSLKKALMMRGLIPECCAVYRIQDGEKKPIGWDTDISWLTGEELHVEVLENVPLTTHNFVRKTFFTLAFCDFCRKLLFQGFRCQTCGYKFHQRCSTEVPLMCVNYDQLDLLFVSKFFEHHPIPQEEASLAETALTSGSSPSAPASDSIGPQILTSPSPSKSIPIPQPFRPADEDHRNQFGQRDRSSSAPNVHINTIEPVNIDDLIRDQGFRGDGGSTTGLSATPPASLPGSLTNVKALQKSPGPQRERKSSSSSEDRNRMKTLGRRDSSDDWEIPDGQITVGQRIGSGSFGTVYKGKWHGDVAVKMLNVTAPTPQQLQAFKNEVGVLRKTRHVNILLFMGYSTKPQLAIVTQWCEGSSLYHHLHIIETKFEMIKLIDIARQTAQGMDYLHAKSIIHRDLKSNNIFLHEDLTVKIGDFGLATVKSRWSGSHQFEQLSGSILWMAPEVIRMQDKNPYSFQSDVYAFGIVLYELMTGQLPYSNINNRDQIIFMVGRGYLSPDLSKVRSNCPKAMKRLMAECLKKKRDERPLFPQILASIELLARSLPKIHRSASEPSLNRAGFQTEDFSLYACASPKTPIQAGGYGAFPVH

[6] = target: T6, Fak (Homo sapiens, UniProt Q05397); experiment: AlphaScreen kinase assay, Fak; conditions: read-out: IC50, activity toward kinase Fak
T6 construct: P1358.pFastBacHtb FAK S411-Q686-X; His6 with pFastBacHTb leader (TEV site) (N); made in house; host or cells: Sf9 (baculovirus)
T6 sequence (Q05397 411-686): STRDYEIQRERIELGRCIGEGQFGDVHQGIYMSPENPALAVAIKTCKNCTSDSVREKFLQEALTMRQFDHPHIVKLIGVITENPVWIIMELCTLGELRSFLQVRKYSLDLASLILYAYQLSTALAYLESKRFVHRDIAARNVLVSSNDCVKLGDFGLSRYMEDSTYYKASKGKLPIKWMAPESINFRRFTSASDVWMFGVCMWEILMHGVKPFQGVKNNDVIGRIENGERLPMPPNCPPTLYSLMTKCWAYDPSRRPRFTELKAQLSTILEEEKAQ

[7] = target: T7, Src (Homo sapiens, UniProt P12931); experiment: AlphaScreen kinase assay, Src; conditions: read-out: IC50, activity toward kinase Src
T7 construct: P1144. pET-N6 BI-PTP SRC V86-L536-X; made in house

[8] = target: T8, B-Raf V600E (Homo sapiens, UniProt P15056, V600E); experiment: AlphaScreen kinase assay, B-Raf V600E; conditions: read-out: IC50, activity toward kinase B-Raf V600E
T8 construct: P4254. pFastBacBD-CDC37 BRAF D437-K722-X, V600E; His6 with pFastBac HT leader (TEV site) (N); made in house; host or cells: Sf9 (baculovirus; chaperone CDC37 co-expressed)
T8 sequence (P15056 with tags, fused parts or gaps V600E): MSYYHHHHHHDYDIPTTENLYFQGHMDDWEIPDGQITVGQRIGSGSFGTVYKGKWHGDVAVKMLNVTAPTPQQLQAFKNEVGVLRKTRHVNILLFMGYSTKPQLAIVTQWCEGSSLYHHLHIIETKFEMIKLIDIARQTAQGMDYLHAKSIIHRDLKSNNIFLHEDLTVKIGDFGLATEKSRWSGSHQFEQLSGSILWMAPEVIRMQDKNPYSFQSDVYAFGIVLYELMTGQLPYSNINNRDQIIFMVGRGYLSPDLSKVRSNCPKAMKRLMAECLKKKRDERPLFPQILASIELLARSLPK

[9] = target: T9, Ret (Homo sapiens, UniProt P07949); experiment: AlphaScreen kinase assay, Ret; conditions: read-out: IC50, activity toward kinase Ret
T9 construct: P1378.pET-SF BI-PTP RET H661-R1012 HIS; made in house
T9 sequence (P07949 with tags, fused parts or gaps): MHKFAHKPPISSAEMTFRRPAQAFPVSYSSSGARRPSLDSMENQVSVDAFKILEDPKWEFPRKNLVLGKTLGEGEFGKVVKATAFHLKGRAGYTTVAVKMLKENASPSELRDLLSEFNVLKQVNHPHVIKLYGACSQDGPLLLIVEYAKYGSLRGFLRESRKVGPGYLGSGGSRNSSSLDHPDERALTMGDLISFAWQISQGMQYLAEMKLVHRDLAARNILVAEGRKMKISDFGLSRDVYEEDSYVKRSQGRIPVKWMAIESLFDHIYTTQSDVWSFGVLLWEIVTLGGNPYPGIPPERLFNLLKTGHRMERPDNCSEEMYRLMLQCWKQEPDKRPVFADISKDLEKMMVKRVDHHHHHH

[10] = target: T10, Fms (Homo sapiens, UniProt P07333); experiment: AlphaScreen kinase assay, Fms; conditions: read-out: IC50, activity toward kinase Fms
T10 construct: purchased Upstate Biotechnology
T10 sequence (P07333 20-972): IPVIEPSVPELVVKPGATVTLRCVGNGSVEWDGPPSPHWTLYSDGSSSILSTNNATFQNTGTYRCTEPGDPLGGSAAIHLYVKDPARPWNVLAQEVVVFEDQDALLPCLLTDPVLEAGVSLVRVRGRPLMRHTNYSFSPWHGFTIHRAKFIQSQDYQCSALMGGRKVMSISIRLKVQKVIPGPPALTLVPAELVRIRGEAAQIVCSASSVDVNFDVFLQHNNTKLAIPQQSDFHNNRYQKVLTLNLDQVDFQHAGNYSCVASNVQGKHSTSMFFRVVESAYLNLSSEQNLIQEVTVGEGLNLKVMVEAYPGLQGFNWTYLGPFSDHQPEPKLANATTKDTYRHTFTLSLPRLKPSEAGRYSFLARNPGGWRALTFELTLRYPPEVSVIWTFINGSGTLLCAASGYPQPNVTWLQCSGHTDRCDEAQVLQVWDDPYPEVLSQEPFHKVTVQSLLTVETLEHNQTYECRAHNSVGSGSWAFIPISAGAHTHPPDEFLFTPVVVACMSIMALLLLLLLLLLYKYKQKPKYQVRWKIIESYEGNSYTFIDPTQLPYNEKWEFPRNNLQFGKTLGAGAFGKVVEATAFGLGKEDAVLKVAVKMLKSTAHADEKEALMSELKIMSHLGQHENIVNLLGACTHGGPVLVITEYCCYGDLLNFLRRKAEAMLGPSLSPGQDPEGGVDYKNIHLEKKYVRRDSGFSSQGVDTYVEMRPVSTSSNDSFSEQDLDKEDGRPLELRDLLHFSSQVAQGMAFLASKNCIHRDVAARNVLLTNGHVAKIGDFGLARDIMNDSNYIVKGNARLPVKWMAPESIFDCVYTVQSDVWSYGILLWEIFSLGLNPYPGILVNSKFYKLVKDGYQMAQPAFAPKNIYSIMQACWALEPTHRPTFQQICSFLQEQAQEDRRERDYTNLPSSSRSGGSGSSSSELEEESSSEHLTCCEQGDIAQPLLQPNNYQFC

[11] = target: T11, Kit (Homo sapiens, UniProt P10721); experiment: AlphaScreen kinase assay, Kit; conditions: read-out: IC50, activity toward kinase Kit
T11 construct: P1332.N6 BI PTP KIT M552-K948-X COD; His6 (N); made in house; host or cells: E. coli (PTP1B co-expressed)
T11 sequence (P10721 with tags, fused parts or gaps): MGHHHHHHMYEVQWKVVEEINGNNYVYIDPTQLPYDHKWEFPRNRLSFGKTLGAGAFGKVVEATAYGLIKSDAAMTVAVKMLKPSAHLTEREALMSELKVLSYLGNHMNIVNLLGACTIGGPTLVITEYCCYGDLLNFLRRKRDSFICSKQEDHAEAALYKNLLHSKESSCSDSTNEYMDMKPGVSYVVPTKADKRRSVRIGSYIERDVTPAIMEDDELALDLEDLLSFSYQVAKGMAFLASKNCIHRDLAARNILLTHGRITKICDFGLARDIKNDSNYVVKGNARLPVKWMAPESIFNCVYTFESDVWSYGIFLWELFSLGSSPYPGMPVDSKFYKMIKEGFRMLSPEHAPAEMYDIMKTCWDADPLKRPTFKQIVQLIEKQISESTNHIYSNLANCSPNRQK

[12] = target: T12, FGFR1 (Homo sapiens, UniProt P11362, C488A/C584S); experiment: AlphaScreen kinase assay, FGFR1; conditions: read-out: IC50, activity toward kinase FGFR
T12 construct: P1351.pET N6 BI-PTP FGFR A458-E765-X C488A, C584S; made in house; host or cells: E. coli (PTP1B co-expressed)
T12 sequence (P11362 458-765 C488A/C584S): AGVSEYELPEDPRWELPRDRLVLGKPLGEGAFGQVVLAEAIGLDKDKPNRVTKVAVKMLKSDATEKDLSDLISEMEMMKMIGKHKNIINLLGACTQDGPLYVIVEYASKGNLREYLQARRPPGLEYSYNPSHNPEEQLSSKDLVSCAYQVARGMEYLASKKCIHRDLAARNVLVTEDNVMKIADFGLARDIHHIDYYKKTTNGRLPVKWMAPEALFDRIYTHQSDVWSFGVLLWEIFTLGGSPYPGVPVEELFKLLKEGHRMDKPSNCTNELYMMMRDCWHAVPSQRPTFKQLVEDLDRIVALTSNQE

[13] = target: T13, Jnk2 (Homo sapiens, UniProt P45984); experiment: AlphaScreen kinase assay, Jnk2; conditions: read-out: IC50, activity toward kinase Jnk2
T13 construct: purchased Roche Protein Expression Group (Indianapolis, IN)
T13 sequence (P45984 whole entry): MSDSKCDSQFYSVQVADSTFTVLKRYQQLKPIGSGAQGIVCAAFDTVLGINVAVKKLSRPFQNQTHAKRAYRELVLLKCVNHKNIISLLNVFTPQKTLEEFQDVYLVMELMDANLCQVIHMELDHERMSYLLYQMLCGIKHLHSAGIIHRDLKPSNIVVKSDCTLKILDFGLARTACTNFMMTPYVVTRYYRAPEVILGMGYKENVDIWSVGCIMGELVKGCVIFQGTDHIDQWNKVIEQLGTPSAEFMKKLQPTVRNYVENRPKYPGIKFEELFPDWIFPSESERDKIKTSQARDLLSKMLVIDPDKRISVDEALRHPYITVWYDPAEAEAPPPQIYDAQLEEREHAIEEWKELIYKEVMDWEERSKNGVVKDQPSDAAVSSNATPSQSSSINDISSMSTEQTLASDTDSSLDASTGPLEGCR
Summary of the method: (§1)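 Compounds in DMSO (20 mM stock) were diluted 1:3 across 8 points. Each kinase phosphorylated a biotin-labelled peptide. Signal generated when donor and acceptor beads came close via antibody binding of phosphorylated substrate.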

[14] = target: T14, Jnk3 (Homo sapiens, UniProt P53779); experiment: AlphaScreen kinase assay, Jnk3; conditions: read-out: IC50, activity toward kinase Jnk3
T14 construct: purchased Upstate Biotechnology

[15] = target: T15, Kdr (Homo sapiens, UniProt P35968); experiment: Z'-Lyte FRET kinase assay (Invitrogen), Kdr; conditions: read-out: IC50, activity toward kinase Kdr
T15 construct: purchased Invitrogen (assay run by Invitrogen)

[16] = target: T16, Zap70 (Homo sapiens, UniProt P43403); experiment: AlphaScreen kinase assay, Zap70; conditions: read-out: IC50, activity toward kinase Zap70
T16 construct: P1868.pFastBac1 ZAP70 D327-G606 HIS, WT; His7 (HHHHHHH) (C); made in house
T16 sequence (P43403 with tags, fused parts or gaps): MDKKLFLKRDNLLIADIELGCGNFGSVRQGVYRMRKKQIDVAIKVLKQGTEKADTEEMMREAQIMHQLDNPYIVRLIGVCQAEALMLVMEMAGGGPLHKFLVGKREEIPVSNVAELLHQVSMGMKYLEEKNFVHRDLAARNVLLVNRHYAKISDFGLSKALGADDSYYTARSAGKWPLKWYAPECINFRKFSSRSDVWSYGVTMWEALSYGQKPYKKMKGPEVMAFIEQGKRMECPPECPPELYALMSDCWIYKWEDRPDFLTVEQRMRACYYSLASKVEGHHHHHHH
Summary of the method: as §1

[17] = target: MAP4K4 (Homo sapiens, UniProt O95819); experiment: AlphaScreen kinase assay, MAP4K4; conditions: read-out: IC50, activity toward kinase MAP4K4
[18] = target: T17, Stk6 (Homo sapiens, UniProt O14965); experiment: Z'-Lyte FRET kinase assay (Invitrogen), Stk6; conditions: read-out: IC50, activity toward kinase Stk6
T17 construct: purchased Invitrogen (Carlsbad, Calif.), screening service
T17 sequence (O14965 1-403): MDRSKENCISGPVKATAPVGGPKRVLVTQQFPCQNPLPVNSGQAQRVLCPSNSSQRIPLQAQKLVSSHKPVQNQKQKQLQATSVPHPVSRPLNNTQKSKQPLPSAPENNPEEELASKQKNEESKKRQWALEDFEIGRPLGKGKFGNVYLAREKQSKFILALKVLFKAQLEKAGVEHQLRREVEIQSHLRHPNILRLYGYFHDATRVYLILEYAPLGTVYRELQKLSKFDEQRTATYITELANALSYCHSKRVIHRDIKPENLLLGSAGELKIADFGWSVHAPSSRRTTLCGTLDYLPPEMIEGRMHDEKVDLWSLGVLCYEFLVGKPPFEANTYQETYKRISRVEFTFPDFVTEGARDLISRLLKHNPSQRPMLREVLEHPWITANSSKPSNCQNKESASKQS

Measured: IC50

T1 sequence (P45983 whole entry): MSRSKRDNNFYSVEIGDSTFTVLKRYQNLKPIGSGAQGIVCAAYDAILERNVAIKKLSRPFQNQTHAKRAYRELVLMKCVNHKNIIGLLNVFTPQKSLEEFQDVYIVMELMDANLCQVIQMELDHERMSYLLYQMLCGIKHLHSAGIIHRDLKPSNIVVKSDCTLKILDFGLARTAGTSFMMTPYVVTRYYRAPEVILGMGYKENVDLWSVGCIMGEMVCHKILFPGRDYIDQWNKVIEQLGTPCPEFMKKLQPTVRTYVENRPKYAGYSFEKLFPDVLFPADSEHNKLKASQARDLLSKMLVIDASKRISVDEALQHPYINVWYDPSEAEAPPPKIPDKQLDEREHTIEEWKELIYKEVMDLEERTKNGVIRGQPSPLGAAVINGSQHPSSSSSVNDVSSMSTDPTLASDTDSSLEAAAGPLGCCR

CS(=O)(=O)Nc1ccc(F)c(C(=O)c2c[nH]c3ncc(-c4cccc(C(N)=O)c4)cc23)c1F [Compound P-0721, 3-[3-(2,6-Difluoro-3-methanesulfonylamino-benzoyl)-1H-pyrrolo[2,3-b]pyridin-5-yl]-benzamide]
not listed: [14] | [15] | [16] | [17] | [18]
≤ 10 µM: all other assays above

O=C(c1c(F)ccc(O)c1F)c1c[nH]c2ncc(-c3cccnc3)cc12 [Compound P-0066, (2,6-Difluoro-3-hydroxy-phenyl)-(5-pyridin-3-yl-1H-pyrrolo[2,3-b]pyridin-3-yl)-methanone]
≤ 10 µM: [1] | [3] | [4] | [5] | [8] | [9] | [14] | [12] | [13]

CS(=O)(=O)Nc1ccc(F)c(C(=O)c2c[nH]c3ncc(-c4ccccc4)cc23)c1F [Compound P-0184, N-[2,4-Difluoro-3-(5-phenyl-1H-pyrrolo[2,3-b]pyridine-3-carbonyl)-phenyl]-methanesulfonamide]
not listed: [6] | [7] | [16] | [17] | [18]
≤ 10 µM: all other assays above

CCOc1ccccc1-c1ccnc2[nH]ccc12 [Compound P-1114]
≤ 10 µM: [4] | [6]

Clc1ccc(Nc2ccnc3[nH]ccc23)cc1Cl [Compound P-0842]
≤ 10 µM: [3] | [4] | [5] | [8] | [16]

CS(=O)(=O)Nc1ccc(F)c(C(=O)c2c[nH]c3ncccc23)c1F [Compound P-0811]
≤ 10 µM: [3] | [17] | [4] | [6] | [8] | [9] | [10] | [12]

Fc1ccc(-c2ccnc3[nH]cc(Sc4cccs4)c23)cc1 [Compound P-0419]
≤ 10 µM: [18] | [4]

CS(=O)(=O)Nc1cccc(-c2cnc3[nH]cc(C(=O)c4c(F)ccc(OC(F)F)c4F)c3c2)c1 [Compound P-1527, N-{3-[3-(3-Difluoromethoxy-2,6-difluoro-benzoyl)-1H-pyrrolo[2,3-b]pyridin-5-yl]-phenyl}-methanesulfonamide]
≤ 10 µM: [2] | [4] | [5] | [7] | [8] | [10] | [11] | [12]
